Experiments:
Assay type in all cases: biochemical
[1] = target: EGFR L858R/T790M mutant (Homo sapiens (Human), UniProt P00533, L858R/T790M); experiment: HotSpot radiometric kinase assay, EGFR L858R/T790M mutant; settings: 10 μM ATP
Procedure: (§1) Biochemical Assays for Inhibition of Wild-Type and Mutant EGFRs
(§2) Briefly, specific kinase/substrate pairs along with required cofactors were prepared in reaction buffer; 20 mM Hepes pH 7.5, 10 mM […], 1 mM EGTA, 0.02% Brij35, 0.02 mg/ml BSA, 0.1 mM Na3VO4, 2 mM DTT, 1% DMSO. Compounds were delivered into the reaction, followed […] later by addition of a mixture of ATP (Sigma, St. Louis MO) and ^33P ATP (Perkin Elmer, Waltham MA) to a final concentration of 10 μM. Reactions were carried out at room temperature for 120 min, followed by spotting of the reactions onto P81 ion exchange filter paper (Whatman Inc., Piscataway, NJ). Unbound phosphate was removed by extensive washing of filters in 0.75% phosphoric acid. […] IC50 values and curve fits were obtained using Prism (GraphPad Software).

[2] = target: EGFR Δ746-750 mutant (Homo sapiens (Human), UniProt P00533, DEL746-750); experiment: HotSpot radiometric kinase assay, EGFR Δ746-750 mutant; settings: 10 μM ATP
Chain of EGFR Δ746-750 mutant (P00533 other isoform, or with tags, fused parts or gaps del 1-668/del 746-750 limits assumed): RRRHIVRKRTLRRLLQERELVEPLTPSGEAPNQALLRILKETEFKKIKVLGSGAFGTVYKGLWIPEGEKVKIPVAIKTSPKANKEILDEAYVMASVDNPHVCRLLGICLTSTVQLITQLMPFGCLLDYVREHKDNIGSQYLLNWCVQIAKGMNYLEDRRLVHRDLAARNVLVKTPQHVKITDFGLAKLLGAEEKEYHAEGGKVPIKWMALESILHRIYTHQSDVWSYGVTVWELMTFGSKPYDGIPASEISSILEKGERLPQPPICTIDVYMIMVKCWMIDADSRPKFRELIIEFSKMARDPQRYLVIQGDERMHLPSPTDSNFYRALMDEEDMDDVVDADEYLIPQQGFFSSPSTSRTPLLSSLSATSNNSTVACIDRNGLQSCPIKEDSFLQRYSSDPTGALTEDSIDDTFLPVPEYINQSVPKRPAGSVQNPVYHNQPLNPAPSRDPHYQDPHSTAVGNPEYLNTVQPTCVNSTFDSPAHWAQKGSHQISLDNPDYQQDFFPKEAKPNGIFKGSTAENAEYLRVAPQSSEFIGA
Procedure: as §1, §2

[3] = target: EGFR WT (Homo sapiens (Human), UniProt P00533); experiment: HotSpot radiometric kinase assay (Reaction Biology), EGFR WT; settings: 10 μM ATP
Procedure: as §1, §2

[4] = target: EGFR Δ746-750/C797S mutant (Homo sapiens (Human), UniProt P00533, C797S/DEL746-750); experiment: HotSpot radiometric kinase assay, EGFR Δ746-750/C797S mutant; settings: 10 μM ATP
Chain of EGFR Δ746-750/C797S mutant (P00533 other isoform, or with tags, fused parts or gaps C797S/del 1-668/del 746-750 limits assumed): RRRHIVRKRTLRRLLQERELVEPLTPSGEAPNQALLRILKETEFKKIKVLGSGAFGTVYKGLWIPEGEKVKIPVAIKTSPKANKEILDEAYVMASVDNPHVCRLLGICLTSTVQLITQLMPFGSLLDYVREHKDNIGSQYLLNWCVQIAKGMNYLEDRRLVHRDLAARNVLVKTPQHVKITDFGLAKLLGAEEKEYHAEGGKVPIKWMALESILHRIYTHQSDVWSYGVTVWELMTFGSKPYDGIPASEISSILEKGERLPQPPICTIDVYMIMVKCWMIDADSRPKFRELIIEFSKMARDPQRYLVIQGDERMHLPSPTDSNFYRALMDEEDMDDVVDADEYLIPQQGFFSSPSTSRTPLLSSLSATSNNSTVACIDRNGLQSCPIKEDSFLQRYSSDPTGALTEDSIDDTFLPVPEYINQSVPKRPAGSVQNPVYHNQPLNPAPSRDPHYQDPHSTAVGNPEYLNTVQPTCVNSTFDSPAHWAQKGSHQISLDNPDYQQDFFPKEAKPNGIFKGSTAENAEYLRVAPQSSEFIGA
Procedure: as §1, §2

[5] = target: EGFR (D770_N771insNPG) (Homo sapiens (Human), UniProt P00533, INS770NPG); experiment: HotSpot radiometric kinase assay, EGFR (D770_N771insNPG); settings: 10 μM ATP, read-out: EGFR (Δ770_N771insNPG) IC50
Chain of EGFR (D770_N771insNPG) (P00533 other isoform, or with tags, fused parts or gaps del 1-668/ins NPG behind 770 limits assumed): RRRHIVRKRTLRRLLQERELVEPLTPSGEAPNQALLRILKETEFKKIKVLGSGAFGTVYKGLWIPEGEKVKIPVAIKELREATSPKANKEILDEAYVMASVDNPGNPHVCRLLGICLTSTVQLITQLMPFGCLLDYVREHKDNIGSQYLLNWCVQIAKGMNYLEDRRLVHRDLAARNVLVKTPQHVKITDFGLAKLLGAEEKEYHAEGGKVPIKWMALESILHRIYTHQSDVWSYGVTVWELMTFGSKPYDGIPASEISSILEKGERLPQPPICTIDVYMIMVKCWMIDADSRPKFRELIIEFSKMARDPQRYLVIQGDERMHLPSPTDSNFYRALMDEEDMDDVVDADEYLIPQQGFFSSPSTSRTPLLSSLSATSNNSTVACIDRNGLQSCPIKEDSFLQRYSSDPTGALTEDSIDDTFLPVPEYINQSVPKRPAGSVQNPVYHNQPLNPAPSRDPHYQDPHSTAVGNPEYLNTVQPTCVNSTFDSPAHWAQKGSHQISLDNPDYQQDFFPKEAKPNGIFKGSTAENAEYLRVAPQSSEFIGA
Procedure: as §1, §2

[6] = target: EGFR L858R/T790M/C797S mutant (Homo sapiens (Human), UniProt P00533, C797S/L858R/T790M); experiment: HotSpot radiometric kinase assay, EGFR L858R/T790M/C797S mutant; settings: 10 μM ATP
Chain of EGFR L858R/T790M/C797S mutant (P00533 25-1210 T790M/C797S/L858R): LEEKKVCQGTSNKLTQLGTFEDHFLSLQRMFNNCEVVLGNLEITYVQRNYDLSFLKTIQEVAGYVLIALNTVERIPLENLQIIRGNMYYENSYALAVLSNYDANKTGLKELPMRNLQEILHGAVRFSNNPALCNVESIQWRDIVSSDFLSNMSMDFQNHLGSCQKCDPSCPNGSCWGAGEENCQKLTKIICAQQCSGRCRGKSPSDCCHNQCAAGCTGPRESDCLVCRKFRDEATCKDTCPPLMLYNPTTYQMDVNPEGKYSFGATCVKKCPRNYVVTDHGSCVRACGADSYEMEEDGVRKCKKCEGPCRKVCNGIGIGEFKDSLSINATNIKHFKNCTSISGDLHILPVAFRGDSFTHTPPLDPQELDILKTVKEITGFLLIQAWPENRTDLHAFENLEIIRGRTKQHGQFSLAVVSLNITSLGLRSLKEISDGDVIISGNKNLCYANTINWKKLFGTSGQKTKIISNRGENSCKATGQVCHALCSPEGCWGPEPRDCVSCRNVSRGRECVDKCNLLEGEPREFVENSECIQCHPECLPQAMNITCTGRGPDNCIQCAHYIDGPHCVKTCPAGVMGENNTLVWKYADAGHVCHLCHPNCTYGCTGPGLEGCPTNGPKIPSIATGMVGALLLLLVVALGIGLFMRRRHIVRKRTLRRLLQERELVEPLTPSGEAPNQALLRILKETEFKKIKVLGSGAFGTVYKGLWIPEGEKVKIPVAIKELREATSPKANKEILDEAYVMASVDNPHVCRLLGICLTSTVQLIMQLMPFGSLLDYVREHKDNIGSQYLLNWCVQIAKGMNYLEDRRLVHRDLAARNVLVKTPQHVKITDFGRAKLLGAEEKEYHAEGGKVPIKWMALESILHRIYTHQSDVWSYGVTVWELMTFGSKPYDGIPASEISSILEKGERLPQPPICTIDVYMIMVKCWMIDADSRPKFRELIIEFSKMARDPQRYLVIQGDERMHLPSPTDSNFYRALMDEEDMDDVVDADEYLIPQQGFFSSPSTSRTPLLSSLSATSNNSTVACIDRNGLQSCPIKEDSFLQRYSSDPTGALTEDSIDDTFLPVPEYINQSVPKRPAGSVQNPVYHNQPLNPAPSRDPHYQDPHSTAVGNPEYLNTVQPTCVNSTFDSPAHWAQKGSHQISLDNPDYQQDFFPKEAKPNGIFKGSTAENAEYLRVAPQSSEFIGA
Procedure: as §1, §2

[7] = target: EGFR L858R mutant (Homo sapiens (Human), UniProt P00533, L858R); experiment: HotSpot radiometric kinase assay, EGFR L858R mutant; settings: 10 μM ATP
Procedure: as §1, §2

Chain of EGFR L858R/T790M mutant (P00533 25-1210 T790M/L858R): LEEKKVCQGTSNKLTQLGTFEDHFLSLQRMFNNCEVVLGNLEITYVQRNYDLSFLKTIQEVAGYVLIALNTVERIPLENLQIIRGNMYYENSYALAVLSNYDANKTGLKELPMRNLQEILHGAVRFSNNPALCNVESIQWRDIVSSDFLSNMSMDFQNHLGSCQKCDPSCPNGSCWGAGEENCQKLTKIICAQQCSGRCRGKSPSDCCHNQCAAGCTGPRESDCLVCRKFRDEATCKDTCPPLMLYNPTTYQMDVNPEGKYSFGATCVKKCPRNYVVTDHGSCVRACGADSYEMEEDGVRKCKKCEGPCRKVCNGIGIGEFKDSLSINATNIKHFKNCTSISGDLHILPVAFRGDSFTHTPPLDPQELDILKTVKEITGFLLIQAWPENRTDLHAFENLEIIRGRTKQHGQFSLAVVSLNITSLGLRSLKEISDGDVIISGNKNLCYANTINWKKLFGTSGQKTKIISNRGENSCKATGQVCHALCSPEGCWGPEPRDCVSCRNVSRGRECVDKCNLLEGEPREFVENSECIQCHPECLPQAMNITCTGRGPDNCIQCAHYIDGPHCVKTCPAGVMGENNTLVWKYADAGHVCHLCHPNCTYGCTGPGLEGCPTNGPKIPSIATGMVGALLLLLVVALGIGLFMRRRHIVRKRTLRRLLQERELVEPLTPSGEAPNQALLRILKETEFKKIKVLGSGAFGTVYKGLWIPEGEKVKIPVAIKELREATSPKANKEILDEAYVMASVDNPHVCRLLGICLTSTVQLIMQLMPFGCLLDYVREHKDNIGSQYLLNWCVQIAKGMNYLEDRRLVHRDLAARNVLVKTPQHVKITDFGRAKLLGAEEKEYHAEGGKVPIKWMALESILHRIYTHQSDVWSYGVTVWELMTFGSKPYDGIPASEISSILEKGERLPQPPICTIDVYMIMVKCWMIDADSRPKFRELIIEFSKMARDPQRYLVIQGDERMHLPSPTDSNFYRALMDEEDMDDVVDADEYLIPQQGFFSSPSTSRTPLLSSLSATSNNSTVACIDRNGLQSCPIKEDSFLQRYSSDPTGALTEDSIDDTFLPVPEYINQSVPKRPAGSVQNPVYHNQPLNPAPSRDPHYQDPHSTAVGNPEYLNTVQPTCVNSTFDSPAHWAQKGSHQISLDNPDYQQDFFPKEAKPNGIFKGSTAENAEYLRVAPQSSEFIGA

An IC50 [1] of 0.39 nM, an IC50 [2] of 3.29 nM and an IC50 [3] of 63.3 nM were found for `CCN1CCOc2c(c(C)nn2C)/C=C/c2n[nH]c3ccc(cc23)-c2cnn(C)c2C1` [Example 111, (17E)-10-ethyl-8,14,16-trimethyl-2,9,10,11,12,14-hexahydro-8H-3,5-ethenotripyrazolo[3,4-f:4′,3′-j:4″,3″-n][1,4]oxazacyclopentadecine] in this work. For the same compound, the IC50 [4] was 9.18 nM, the IC50 [5] was 16.8 nM and the IC50 [6] was 1.91 nM. It also gave an IC50 [7] of 8.04 nM.

An IC50 [1] of 0.41 nM, an IC50 [2] of 7.95 nM and an IC50 [3] of 14.5 nM were found for `CN1CCN(Cc2ccc3c(c2)O[C@@H]2CCN(CCOc4c(cnn4C)-c4ccc5[nH]nc(c5c4)/C=C/3)C2=O)CC1` [Example 92, (10R,16E)-3-methyl-13-[(4-methylpiperazin-1-yl)methyl]-3,5,6,9,10,19-hexahydro-8H-20,22-etheno-7,10-methanodipyrazolo[3,4-i:4′,3′-m][1,8,5]benzodioxazacyclooctadecin-25-one] in this work. For the same compound, the IC50 [4] was 6.65 nM, the IC50 [5] was 6.34 nM and the IC50 [6] was 3.26 nM. The IC50 [7] was 4.1 nM.

An IC50 [1] of 3.81 nM, an IC50 [2] of 32.3 nM and an IC50 [3] of 98.7 nM were found for `Cn1ncc2c1OCCN1CC[C@@H](Oc3ccccc3/C=C/c3n[nH]c4ccc-2cc34)C1=O` [Example 70, (10R,16E)-3-methyl-3,5,6,9,10,19-hexahydro-8H-20,22-etheno-7,10-methanodipyrazolo[3,4-i:4,3′-m][1,8,5]benzodioxazacyclooctadecin-25-one] in this work. The IC50 [4] was 27.1 nM, the IC50 [5] was 73.6 nM and the IC50 [6] was 3.68 nM. It also gave an IC50 [7] of 70.1 nM.

An IC50 [1] of 0.15 nM, an IC50 [2] of 2.82 nM and an IC50 [3] of 11.1 nM were found for `Cc1nn(C[C@@H](C)O)c2c1/C=C/c1n[nH]c3ccc(cc13)-c1cnn(C)c1O[C@@H](C)CN(C)C2` [Example 127, (2R)-1-[(10S,17E)-8,10,12,16-tetramethyl-2,8,10,11,12,13-hexahydro-14H-3,5-ethenotripyrazolo[3,4-f:3′,4′-j:4″,3″-n][1,4]oxazacyclopentadecin-14-yl]propan-2-ol] in this work. The IC50 [4] was 0.85 nM, the IC50 [5] was 25.6 nM and the IC50 [6] was 0.43 nM. For the same compound, the IC50 [7] was 1.81 nM.

An IC50 [1] of 8.66 nM, an IC50 [2] of 69.9 nM and an IC50 [3] of 488 nM were found for `C[C@H]1CN(C)Cc2cnn(C)c2/C=C/c2n[nH]c3ccc(cc23)-c2cnn(C)c2O1` [Example 113, (10S,17E)-8,10,12,16-tetramethyl-2,10,11,12,13,16-hexahydro-8H-3,5-ethenotripyrazolo[4,3-f:3′,4′-j:4″,3″-n][1,4]oxazacyclopentadecine] in this work. The IC50 [4] was 67.4 nM, the IC50 [5] was 727 nM and the IC50 [6] was 9.91 nM. It also gave an IC50 [7] of 96.8 nM.

An IC50 [1] of 0.8 nM, an IC50 [2] of 15.2 nM and an IC50 [3] of 103 nM were found for `C[C@H]1CN(C)Cc2c(c(OC3CCNCC3)nn2C)/C=C/c2n[nH]c3ccc(cc23)-c2cnn(C)c2O1` [Example 136, (10S,17E)-8,10,12,14-tetramethyl-16-[(piperidin-4-yl)oxy]-2,10,11,12,13,14-hexahydro-8H-3,5-ethenotripyrazolo[3,4-f:3′,4′-j:4″,3″-n][1,4]oxazacyclopentadecine] in this work. For the same compound, the IC50 [4] was 12.1 nM, the IC50 [5] was 334 nM and the IC50 [6] was 1.54 nM. The IC50 [7] was 14.6 nM.

An IC50 [1] of 4.37 nM, an IC50 [2] of 38.7 nM and an IC50 [3] of 50.8 nM were found for `Cc1nn([C@H]2CCNC[C@@H]2O)c2c1/C=C/c1n[nH]c3ccc(cc13)-c1cnn(C)c1OCCCO2` (racemic) [Example 80, (rac)-4-[(17E)-8,16-dimethyl-2,8,11,12-tetrahydro-10H,14H-3,5-etheno[1,5]dioxacyclopentadecino[10,11-c:15,14-c′:6,7-c′]tripyrazol-14-yl]piperidin-3-ol] in this work. For the same compound, the IC50 [4] was 39.2 nM, the IC50 [5] was 59.1 nM and the IC50 [6] was 11.2 nM. For the same compound, the IC50 [7] was 24.7 nM.

An IC50 [1] of 1.95 nM, an IC50 [2] of 121 nM and an IC50 [3] of 167 nM were found for `Cc1c2c(nn1CCC(C)O)CN(C)C[C@H](C)Oc1c(cnn1C)-c1ccc3[nH]nc(c3c1)/C=C/2` (stereo partly drawn) [Example 95, 4-[(10S,17E)-8,10,12,16-tetramethyl-2,8,10,11,12,13-hexahydro-15H-3,5-ethenotripyrazolo[3,4-f:3′,4′-j:4″,3″-n][1,4]oxazacyclopentadecin-15-yl]butan-2-ol] in this work. The IC50 [4] was 23 nM, the IC50 [5] was 524 nM and the IC50 [6] was 4.93 nM. It also gave an IC50 [7] of 30.1 nM.

An IC50 [1] of 2.28 nM, an IC50 [2] of 34.1 nM and an IC50 [3] of 41.9 nM were found for `Cc1c2c(nn1[C@H]1C[C@@H](NCCN(C)C)C1)OCCCOc1c(cnn1C)-c1ccc3[nH]nc(c3c1)/C=C/2` [Example 107, N^2-{(1s,3s)-3-[(17E)-8,16-dimethyl-2,8,11,12-tetrahydro-10H,15H-3,5-etheno[1,5]dioxacyclopentadecino[10,11-c:15,14-c′:6,7-c″]tripyrazol-15-yl]cyclobutyl}-N^1,N^1-dimethylethane-1,2-diamine] in this work. For the same compound, the IC50 [4] was 42.2 nM, the IC50 [5] was 66.5 nM and the IC50 [6] was 11.3 nM. It also gave an IC50 [7] of 13.6 nM.

An IC50 [1] of 4.1 nM, an IC50 [2] of 48.1 nM and an IC50 [3] of 62.4 nM were found for `Cc1c2c(nn1[C@H]1C[C@@H](N(C)CCN(C)C)C1)OCCCOc1c(cnn1C)-c1ccc3[nH]nc(c3c1)/C=C/2` [Example 102, N^1—{(1s,3s)-3-[(17E)-8,16-dimethyl-2,8,11,12-tetrahydro-10H,15H-3,5-etheno[1,5]dioxacyclopentadecino[10,11-c:15,14-c′:6,7-c′]tripyrazol-15-yl]cyclobutyl}-N^1,N—,N^2-trimethylethane-1,2-diamine] in this work. For the same compound, the IC50 [4] was 44.7 nM, the IC50 [5] was 94.5 nM and the IC50 [6] was 13.1 nM. For the same compound, the IC50 [7] was 25.4 nM.

An IC50 [1] of 7.32 nM, an IC50 [2] of 81.1 nM and an IC50 [3] of 457 nM were found for `Cc1nn(C)c2c1CN(C)C[C@H](C)Oc1c(cnn1C)-c1ccc3[nH]nc(c3c1)/C=C/2` [Example 130, (10S,17E)-8,10,12,14,16-pentamethyl-2,10,11,12,13,16-hexahydro-8H-3,5-ethenotripyrazolo[4,3-f:3′,4′-j:4″,3″- n][1,4]oxazacyclopentadecine] in this work. It also gave an IC50 [4] of 38.4 nM, an IC50 [5] of 851 nM and an IC50 [6] of 5.66 nM. For the same compound, the IC50 [7] was 84.3 nM.

An IC50 [1] of 0.72 nM, an IC50 [2] of 15 nM and an IC50 [3] of 99.8 nM were found for `C[C@H]1CN(C)Cc2nn3c(c2/C=C/c2n[nH]c4ccc(cc24)-c2cnn(C)c2O1)CN(CCS(C)(=O)=O)CC3` [Example 166, (10S,20E)-18-[2-(methanesulfonyl)ethyl]-8,10,12-trimethyl-2,8,10,11,12,13,16,17,18,19-decahydro-3,5-ethenopyrazino[1′,2′:1,5]pyrazolo [3,4-f]dipyrazolo[3,4-j:4′,3′-n][1,4]oxazacyclopentadecine] in this work. The IC50 [4] was 8.1 nM, the IC50 [5] was 45.6 nM and the IC50 [6] was 0.55 nM. For the same compound, the IC50 [7] was 12.8 nM.

An IC50 [1] of 1.24 nM, an IC50 [2] of 27.9 nM and an IC50 [3] of 67.8 nM were found for `Cc1nn([C@H]2CCN(C)C[C@@H]2O)c2c1/C=C/c1n[nH]c3ccc(cc13)-c1cnn(C)c1OCCCO2` (racemic) [Example 82, (rac)-4-[(17E)-8,16-dimethyl-2,8,11,12-tetrahydro-10H,14H-3,5-etheno[1,5]dioxacyclopentadecino[10,11-c:15,14-c′:6,7-c′]tripyrazol-14-yl]-1-methylpiperidin-3-ol] in this work. The IC50 [4] was 29.8 nM, the IC50 [5] was 56.7 nM and the IC50 [6] was 5.77 nM. It also gave an IC50 [7] of 15.3 nM.

An IC50 [1] of 0.21 nM, an IC50 [2] of 0.55 nM and an IC50 [3] of 4.14 nM were found for `C[C@H]1CN(C)Cc2c(c(OC3CN(S(C)(=O)=O)C3)nn2CCO)/C=C/c2n[nH]c3ccc(cc23)-c2cnn(C)c2O1` [Example 221, 2-[(10S,17E)-16-{[1-(methanesulfonyl)azetidin-3-yl]oxy}-8,10,12-trimethyl-2,8,10,11,12,13-hexahydro-14H-3,5-ethenotripyrazolo[3,4-f:3′,4′-j:4″,3″-n][1,4]oxazacyclopentadecin-14-yl]ethan-1-ol] in this work. For the same compound, the IC50 [4] was 0.35 nM, the IC50 [5] was 10.3 nM and the IC50 [6] was 0.14 nM. It also gave an IC50 [7] of 0.97 nM.

An IC50 [1] of 0.77 nM, an IC50 [2] of 33.7 nM and an IC50 [3] of 264 nM were found for `Cc1c2c(nn1C[C@@H](C)O)CN(C)C[C@H](C)Oc1c(cnn1C)-c1ccc3[nH]nc(c3c1)/C=C/2` [Example 128, (2R)-1-[(10S,17E)-8,10,12,16-tetramethyl-2,8,10,11,12,13-hexahydro-15H-3,5-ethenotripyrazolo[3,4-f:3′,4′-j:4″,3″-n][1,4]oxazacyclopentadecin-15-yl]propan-2-ol] in this work. For the same compound, the IC50 [4] was 15.2 nM, the IC50 [5] was 383 nM and the IC50 [6] was 1.01 nM. For the same compound, the IC50 [7] was 21.9 nM.

An IC50 [1] of 8.31 nM, an IC50 [2] of 117 nM and an IC50 [3] of 769 nM were found for `CCOc1ccc2c(n1)/C=C/c1n[nH]c3ccc(cc13)-c1cnn(C)c1O[C@@H](C)CN(C)C2` [Ex. 267, (10S,18E)-16-ethoxy-8,10,12-trimethyl-2,8,10,11,12,13-hexahydro-3,5-ethenodipyrazolo[3,4-j:4′,3′-n]pyrido[3,2-f][1,4]oxazacyclopentadecine] in this work. The IC50 [4] was 107 nM, the IC50 [5] was 1230 nM and the IC50 [6] was 5.42 nM. For the same compound, the IC50 [7] was 241 nM.

— patent US20250353864A1, “INDAZOLE CONTAINING MACROCYCLES AND THEIR USE” (BLOSSOMHILL THERAPEUTICS, INC., priority 2022, published 2025)
